Laboratory results taken from the NIST ThermoML archive (doi:10.1021/acs.jced.8b00566).
Numbers after ± are expanded uncertainties.

Assays:
[1] = Crystal; DSC
[2] = Molar enthalpy of transition or fusion; details: Crystal; DSC

| SMILES | Triple point temperature [1] [K] | Molar enthalpy of transition or fusion [2] [kcal/mol] |
| --- | --- | --- |
| CC(=O)O[C@H]1CC[C@@]2(C)C(=CC[C@@H]3[C@@H]2CC[C@]2(C)C(c4cccnc4)=CC[C@@H]32)C1 [abiraterone acetate] | 419.3 ± 0.8 | 6.17 ± 0.239 |
| C[C@]12CC[C@H](O)CC1=CC[C@@H]1[C@@H]2CC[C@]2(C)C(c3cccnc3)=CC[C@@H]12 [abiraterone] | 501.4 ± 0.8 | 10.8 ± 0.287 |
